Measurements published in ChEMBL document CHEMBL1201862, “PubChem BioAssay data set” (2004).
Calls of active or inactive are those of the source.

Legend:
[1] = cells
[2] = cytotoxicity toward NIH3T3 fibroblasts, dose response, counter-screen, cell-based, ATP luminescence, mouse fibroblasts (AID 2010); type: functional;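 also: cells exposed to compound for about 90 hours before reading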
[3] = inhibitors of intracellular T. cruzi replication, confirmation, NIH3T3 host cells, beta-gal luminescence (AID 2044); type: functional, cell-based;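 also: intracellular parasites grown in NIH/3T3 mouse fibroblasts as host cells; luminescent beta-galactosidase reporter signal from transgenic T. cruzi replicating inside host cells; inhibitors lower the luminescence signal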
[4] = biological target: Peroxisome proliferator-activated receptor gamma/Nuclear receptor corepressor 2 (Homo sapiens, UniProt P37231+Q9Y618); experiment: Counterscreen for NR2E3 inverse agonists: TR-FRET-based biochemical high throughput dose response assay to identify inverse agonists of the interaction between peroxisome proliferator-activated receptor gamma (PPARg) and nuclear receptor co-repressor 2 (NCOR2).; type: functional
[5] = biological target: Photoreceptor-specific nuclear receptor (Homo sapiens, UniProt Q9Y5X4); experiment: NR2E3 inverse agonists, dose response, biochemical, TR-FRET (AID 463256); type: functional
[6] = THP-1 cell cytotoxicity, dose response, cytotoxicity control for Vif-APOBEC3G degradation inhibitor project, THP-1 cells (AID 1117359); type: functional; conditions: Human immunodeficiency virus 1, THP-1
[7] = biological target: Diphosphomevalonate decarboxylase (Streptococcus pneumoniae serotype 2 (strain D39 / NCTC 7466), UniProt Q9FD53); experiment: S. pneumoniae DPM-DC inhibition retest, confirmation, biochemical, cuvette format, coupled NADH fluorescence (AID 1028); type: functional
[8] = biological target: T1, Tyrosine-protein phosphatase non-receptor type 7 (Homo sapiens, UniProt P35236); experiment: inhibitors of human HePTP phosphatase, […], biochemical, absorbance, leukemia target (AID 521); type: functional
T1 sequence (P35236 whole entry): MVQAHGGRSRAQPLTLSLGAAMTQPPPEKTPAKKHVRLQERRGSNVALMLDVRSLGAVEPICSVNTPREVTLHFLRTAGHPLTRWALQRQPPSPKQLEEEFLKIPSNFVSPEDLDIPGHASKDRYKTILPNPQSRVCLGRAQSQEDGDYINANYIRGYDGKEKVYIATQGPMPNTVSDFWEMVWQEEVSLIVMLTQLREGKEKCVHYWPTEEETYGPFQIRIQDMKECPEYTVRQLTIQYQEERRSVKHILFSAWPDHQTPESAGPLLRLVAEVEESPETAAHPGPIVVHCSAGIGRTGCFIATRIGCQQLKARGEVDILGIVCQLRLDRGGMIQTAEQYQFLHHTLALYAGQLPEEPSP

[9] = biological target: T2, Bcl-2-related protein A1 (Mus musculus, UniProt Q07440); experiment: Bfl-1 inhibitors blocking BH3 peptide binding, confirmation, biochemical, TR-FRET, mouse Bfl-1 (AID 621);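 also: TR-FRET binding of GST-Bfl-1 to FITC-labelled Bid peptide via terbium antibody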
T2 sequence (Q07440 whole entry): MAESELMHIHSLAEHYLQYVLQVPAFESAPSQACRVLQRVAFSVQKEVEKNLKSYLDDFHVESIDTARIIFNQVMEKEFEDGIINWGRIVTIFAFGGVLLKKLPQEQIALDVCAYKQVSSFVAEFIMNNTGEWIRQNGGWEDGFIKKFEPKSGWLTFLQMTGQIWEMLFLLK

[10] = biological target: T2, Bcl-2-related protein A1; experiment: Bfl-1 inhibitors, primary screen, biochemical, fluorescence polarization, FITC-Bid, mouse (AID 432)
[11] = test system: INS1; experiment: beta cell apoptosis inhibitors, cytokine rescue, dose response, luminescence, retest (AID 449756); type: functional, cell-based; conditions: Rattus norvegicus;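 also: cell death triggered by IL-1 beta plus TNF-alpha plus IFN-gamma mixture; protective hits raise ATP signal compared with cytokine alone wells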
[12] = Luminescence Cell-Based Dose Response HTS to Identify Inhibitors of 5'UTR Stem-Loop Driven Prion Protein mRNA Translation in H4 Neuroglioblastoma Cells. [Related pubchem assays: 1827 (Project Summary), 1813 (Primary HTS)]; type: functional
[13] = inhibitors of SNCA 5'UTR-driven reporter translation, confirmation, H4 neuroglioma cells, luminescence (AID 1988); type: functional, cell-based
[14] = biological target: Nonstructural protein 1 (Influenza A virus, UniProt Q194T2); type: functional, Influenza A virus (A/California/07/2009(H1N1))
[15] = inhibitors of firefly luciferase expression or activity, dose response, H4 neuroglioma cells, luminescence (AID 1990); type: functional, cell-based
[16] = biological target: Transthyretin (Homo sapiens, UniProt P02766); experiment: Luminescence-based cell-based high throughput dose response assay to identify activators of Transthyretin (TTR) transcription.; type: functional
[17] = test system: Vero; experiment: cells; type: functional; conditions: Chlorocebus sabaeus
[18] = biological target: Paired box protein Pax-8 (Homo sapiens, UniProt Q06710); experiment: inhibitors of PAX8-driven TPO luciferase reporter, dose response, RMG-I cells, cherry-pick (AID 687027); type: functional, cell-based;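 also: luciferase reporter driven by Pax8 target thyroperoxidase promoter measured by SteadyGlo luminescence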
[19] = Luminescent dose response cell-based high throughput screening assay for inhibitors of the Janus kinase 2 mutant JAK2V617F. [Related pubchem assays: 1446 (Primary screen.), 1521 (Confirmation assay.), 1486 (Counter screen.)]; type: functional
[20] = cytotoxicity dependent on PAX8, dose response, cell-based, plate reader, dry powder (AID 743049); type: functional
[21] = cytotoxicity in OV-90 ovarian cancer cells, dose response, PAX8 inhibitor project, cell-based, plate reader, dry powder, SA8 (AID 743149); type: functional
[22] = PAX2 cell-based inhibition, dose response, selectivity assay for PAX8 inhibitor project, plate reader, dry powder samples (AID 743048); type: functional;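 also: HEK293 cells carrying a WT1 promoter luciferase reporter driven by expressed Pax2; potency is for inhibition of Pax2 driven reporter signal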
[23] = cytotoxicity in COV362 ovarian cancer cells, dose response, cytotoxicity control for PAX8 inhibitor project, cell-based, plate reader, dry powder, SA12 (AID 743144); type: functional
[24] = PAX5 activity inhibitors, dose response, selectivity assay for PAX8 inhibitor project, cell-based, plate reader, dry powder samples (AID 743047); type: functional;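 also: HEK293 cells carrying a Pax5 driven CD19 promoter luciferase reporter; potency of inhibitors that lower reporter luminescence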
[25] = P. falciparum Dd2 growth inhibitors, dose response, SYBR Green, cherry-picked samples (AID 1159567); type: functional, cell-based
[26] = P. falciparum Dd2 growth inhibitors, dose response, SYBR Green, dry powder samples, set 4 (AID 1159572); type: functional, cell-based
[27] = HepG2 cell cytotoxicity, dose response, cytotoxicity control, plate reader, dry powder samples (AID 1159569); type: functional, cell-based;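 also: inhibitor potency with signal falling toward the positive control level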
[28] = P. falciparum ATP4 D1247Y mutant growth inhibitors, dose response, NITD609-resistant line, SYBR Green, dry powder (AID 1159571); type: functional, cell-based;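 also: parasites synchronized at ring stage by sorbitol before testing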
[29] = P. falciparum 3D7-ScDHODH growth inhibitors, dose response, SYBR Green, dry powder samples (AID 1159570); type: functional, cell-based;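 also: parasite growth measured after 72 hours of compound exposure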
[30] = P. falciparum Dd2 growth inhibitors, dose response, SYBR Green, dry powder samples (AID 1159566); type: functional, cell-based;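 also: potency for growth inhibition with lower SYBR green DNA signal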
[31] = HepG2 cell cytotoxicity, dose response, cytotoxicity control, cherry-picked samples (AID 1159577); type: functional, cell-based
[32] = HepG2 cell cytotoxicity, dose response, cytotoxicity control, plate reader, dry powder, set 6 (AID 743311); type: functional, cell-based
[33] = cells; conditions: HEK293
[34] = A549 cell cytotoxicity, dose response, cytotoxicity control, plate reader, dry powder, set 6 (AID 743312); type: functional, cell-based
[35] = SNU-C1 cell viability reduction, dose response, CellTiter-Glo luminescence (AID 1117323); type: functional, cell-based
[36] = cytotoxicity toward HT-29 cells – cell-based, CellTiter-Glo luminescence, IC50, dose response (AID 1117330); type: functional
[37] = cytotoxicity toward HCT116 cells – cell-based, CellTiter-Glo luminescence, IC50, dose response (AID 1117332); type: functional; conditions: HCT-116
[38] = HeLa 2N DNA content increase, dose response, cell-based, IC50 (AID 1117349); type: functional
[39] = HeLa 4N DNA content increase, dose response, cell-based, IC50 (AID 1117351); type: functional
[40] = Concentration-dependent survival of SW480 colon cancer line, luminescence detection with CellTiter-Glo, half-maximal inhibitory concentration (AID 1117338); type: functional
[41] = cytotoxicity toward Colo320 cells – cell-based, CellTiter-Glo luminescence, IC50, dose response (AID 1117334); type: functional; conditions: COLO 320
[42] = CellTiter-Glo luminescent dose response of DLD-1 viability loss (AID 1117352); type: functional
[43] = RKO cell viability reduction, dose response, CellTiter-Glo luminescence (AID 1117322); type: functional

Chain of Paired box protein Pax-8 (Q06710 whole entry): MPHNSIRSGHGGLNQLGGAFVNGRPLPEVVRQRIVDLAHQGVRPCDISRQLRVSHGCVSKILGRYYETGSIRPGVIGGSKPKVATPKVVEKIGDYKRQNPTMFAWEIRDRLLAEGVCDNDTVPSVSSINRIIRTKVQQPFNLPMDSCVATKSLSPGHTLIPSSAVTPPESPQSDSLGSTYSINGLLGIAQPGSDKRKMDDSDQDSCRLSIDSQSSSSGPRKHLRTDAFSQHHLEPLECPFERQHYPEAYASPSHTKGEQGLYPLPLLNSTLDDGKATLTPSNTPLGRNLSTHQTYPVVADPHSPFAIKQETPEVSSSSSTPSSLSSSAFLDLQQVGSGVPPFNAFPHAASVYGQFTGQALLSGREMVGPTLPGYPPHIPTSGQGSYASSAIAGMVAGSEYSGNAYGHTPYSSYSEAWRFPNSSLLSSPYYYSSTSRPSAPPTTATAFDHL
Chain of Photoreceptor-specific nuclear receptor (Q9Y5X4 whole entry): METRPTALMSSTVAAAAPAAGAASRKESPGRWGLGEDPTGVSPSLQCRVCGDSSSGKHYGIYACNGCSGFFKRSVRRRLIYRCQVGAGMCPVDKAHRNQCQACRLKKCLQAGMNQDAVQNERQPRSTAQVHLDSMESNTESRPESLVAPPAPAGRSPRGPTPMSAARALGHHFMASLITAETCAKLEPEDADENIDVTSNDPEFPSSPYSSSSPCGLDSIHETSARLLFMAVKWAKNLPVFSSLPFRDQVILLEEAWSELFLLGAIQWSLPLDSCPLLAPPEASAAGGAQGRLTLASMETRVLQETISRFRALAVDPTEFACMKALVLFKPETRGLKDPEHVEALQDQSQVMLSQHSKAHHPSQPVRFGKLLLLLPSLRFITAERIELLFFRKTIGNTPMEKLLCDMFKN
Chain of Diphosphomevalonate decarboxylase (Q9FD53 whole entry): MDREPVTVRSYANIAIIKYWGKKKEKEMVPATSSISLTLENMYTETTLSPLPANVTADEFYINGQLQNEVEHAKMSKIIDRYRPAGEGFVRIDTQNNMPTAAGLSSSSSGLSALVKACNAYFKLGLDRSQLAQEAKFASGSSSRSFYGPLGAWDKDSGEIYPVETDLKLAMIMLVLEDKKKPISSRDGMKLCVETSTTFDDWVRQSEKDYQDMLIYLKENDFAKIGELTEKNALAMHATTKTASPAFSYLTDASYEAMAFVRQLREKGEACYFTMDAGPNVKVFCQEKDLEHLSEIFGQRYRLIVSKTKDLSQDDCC
Chain of Nonstructural protein 1 (Q194T2 whole entry): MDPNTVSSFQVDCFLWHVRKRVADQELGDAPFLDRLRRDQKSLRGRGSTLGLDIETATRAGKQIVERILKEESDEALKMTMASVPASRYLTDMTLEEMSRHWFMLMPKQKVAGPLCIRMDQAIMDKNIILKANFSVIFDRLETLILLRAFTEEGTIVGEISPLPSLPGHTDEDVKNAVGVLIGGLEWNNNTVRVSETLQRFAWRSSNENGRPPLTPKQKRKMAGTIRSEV
Chain of Peroxisome proliferator-activated receptor gamma/Nuclear receptor corepressor 2 (P37231 whole entry): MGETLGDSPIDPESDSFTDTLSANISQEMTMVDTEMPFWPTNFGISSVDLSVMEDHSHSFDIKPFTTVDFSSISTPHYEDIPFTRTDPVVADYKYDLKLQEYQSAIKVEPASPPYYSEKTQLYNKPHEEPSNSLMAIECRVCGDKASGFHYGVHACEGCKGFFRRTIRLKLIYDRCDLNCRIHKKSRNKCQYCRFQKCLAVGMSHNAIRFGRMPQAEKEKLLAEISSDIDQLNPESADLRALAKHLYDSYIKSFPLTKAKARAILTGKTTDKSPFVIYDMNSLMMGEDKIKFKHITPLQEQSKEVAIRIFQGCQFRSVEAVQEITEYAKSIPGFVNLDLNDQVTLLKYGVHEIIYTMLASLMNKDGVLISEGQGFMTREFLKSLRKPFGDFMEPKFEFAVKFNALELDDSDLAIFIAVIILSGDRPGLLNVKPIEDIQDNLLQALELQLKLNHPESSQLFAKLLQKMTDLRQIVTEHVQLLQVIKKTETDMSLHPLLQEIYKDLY
Chain of Peroxisome proliferator-activated receptor gamma/Nuclear receptor corepressor 2 (Q9Y618 whole entry): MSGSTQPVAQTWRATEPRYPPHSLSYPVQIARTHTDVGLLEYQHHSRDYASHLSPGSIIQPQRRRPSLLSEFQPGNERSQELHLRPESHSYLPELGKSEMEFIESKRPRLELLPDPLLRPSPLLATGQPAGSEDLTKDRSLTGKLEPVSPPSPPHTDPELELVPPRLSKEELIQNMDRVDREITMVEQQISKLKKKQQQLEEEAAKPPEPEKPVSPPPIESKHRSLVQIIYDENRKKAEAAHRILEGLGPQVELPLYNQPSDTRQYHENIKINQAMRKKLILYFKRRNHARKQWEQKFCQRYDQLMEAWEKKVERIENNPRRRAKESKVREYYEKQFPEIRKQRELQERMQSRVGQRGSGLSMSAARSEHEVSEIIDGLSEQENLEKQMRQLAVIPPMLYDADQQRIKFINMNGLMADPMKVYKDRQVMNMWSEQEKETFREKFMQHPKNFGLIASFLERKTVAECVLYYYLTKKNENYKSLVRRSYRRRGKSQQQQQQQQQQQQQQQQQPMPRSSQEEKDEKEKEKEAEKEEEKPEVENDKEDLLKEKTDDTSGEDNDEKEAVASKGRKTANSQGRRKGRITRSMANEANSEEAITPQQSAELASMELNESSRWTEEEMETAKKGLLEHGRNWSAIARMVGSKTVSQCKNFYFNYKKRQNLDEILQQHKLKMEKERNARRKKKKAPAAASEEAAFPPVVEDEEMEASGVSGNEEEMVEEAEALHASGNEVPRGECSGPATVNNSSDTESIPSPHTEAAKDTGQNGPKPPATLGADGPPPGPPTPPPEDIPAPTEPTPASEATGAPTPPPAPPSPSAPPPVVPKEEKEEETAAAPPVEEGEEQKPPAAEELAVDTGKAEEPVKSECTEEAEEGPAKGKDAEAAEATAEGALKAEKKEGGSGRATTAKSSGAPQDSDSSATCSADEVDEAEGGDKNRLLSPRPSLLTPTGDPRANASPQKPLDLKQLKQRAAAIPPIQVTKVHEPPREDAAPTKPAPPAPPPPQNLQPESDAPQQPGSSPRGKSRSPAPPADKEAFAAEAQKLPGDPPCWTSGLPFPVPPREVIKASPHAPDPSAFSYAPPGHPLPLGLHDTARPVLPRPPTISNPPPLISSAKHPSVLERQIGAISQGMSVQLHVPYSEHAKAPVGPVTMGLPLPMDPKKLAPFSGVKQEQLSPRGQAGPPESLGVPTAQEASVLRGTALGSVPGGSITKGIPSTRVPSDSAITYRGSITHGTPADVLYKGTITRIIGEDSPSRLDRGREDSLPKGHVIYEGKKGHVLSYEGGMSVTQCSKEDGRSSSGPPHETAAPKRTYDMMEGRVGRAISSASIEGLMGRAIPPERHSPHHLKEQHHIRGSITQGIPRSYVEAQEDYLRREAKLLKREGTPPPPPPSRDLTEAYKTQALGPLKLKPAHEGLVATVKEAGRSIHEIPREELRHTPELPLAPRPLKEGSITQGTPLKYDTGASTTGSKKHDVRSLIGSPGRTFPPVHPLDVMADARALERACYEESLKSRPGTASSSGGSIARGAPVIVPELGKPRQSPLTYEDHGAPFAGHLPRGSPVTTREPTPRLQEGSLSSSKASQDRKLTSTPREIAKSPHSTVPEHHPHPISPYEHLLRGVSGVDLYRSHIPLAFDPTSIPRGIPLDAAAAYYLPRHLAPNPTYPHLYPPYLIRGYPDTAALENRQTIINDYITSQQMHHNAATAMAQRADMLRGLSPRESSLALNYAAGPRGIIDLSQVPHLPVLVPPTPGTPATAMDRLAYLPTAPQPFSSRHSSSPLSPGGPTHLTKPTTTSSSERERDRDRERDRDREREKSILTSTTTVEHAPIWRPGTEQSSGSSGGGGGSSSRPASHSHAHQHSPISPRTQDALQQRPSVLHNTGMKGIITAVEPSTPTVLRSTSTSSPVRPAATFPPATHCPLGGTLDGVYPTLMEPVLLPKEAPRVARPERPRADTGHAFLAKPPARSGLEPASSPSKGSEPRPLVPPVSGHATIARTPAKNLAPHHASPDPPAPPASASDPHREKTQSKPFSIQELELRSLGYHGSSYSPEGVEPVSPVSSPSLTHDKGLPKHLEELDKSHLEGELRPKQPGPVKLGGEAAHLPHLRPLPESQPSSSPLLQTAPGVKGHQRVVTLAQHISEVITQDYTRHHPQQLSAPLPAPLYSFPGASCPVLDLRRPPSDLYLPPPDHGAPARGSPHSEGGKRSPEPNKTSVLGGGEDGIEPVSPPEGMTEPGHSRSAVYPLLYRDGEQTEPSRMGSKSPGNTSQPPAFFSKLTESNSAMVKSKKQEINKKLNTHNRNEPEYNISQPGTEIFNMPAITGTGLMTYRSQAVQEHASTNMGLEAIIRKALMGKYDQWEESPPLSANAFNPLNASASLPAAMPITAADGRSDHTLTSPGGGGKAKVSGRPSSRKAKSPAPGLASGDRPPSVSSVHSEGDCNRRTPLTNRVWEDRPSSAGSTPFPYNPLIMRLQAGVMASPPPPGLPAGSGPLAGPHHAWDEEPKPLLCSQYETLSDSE

With `CN1CCc2c(sc3c2c(=O)n(-c2ccccc2)c2nnc(SCc4ccc(Cl)cc4)n32)C1` the EC50 [1] was < 0.004 µM (active), the EC50 [2] was > 60 µM (not active) and the EC50 [3] was < 0.1 µM (active).
With `CC(=O)c1sc(NS(=O)(=O)c2ccc(C)cc2)nc1-c1ccccc1` the IC50 [4] was > 39.8 µM (not active) and the IC50 [5] was > 39.8 µM (not active).
With `CC(C)Oc1ccc(C(=O)N(Cc2ccco2)C2CCS(=O)(=O)C2)cc1` (stereo not drawn) the CC50 [6] was > 40 µM (active).
In the case of `O=C(NCC1CC1)c1ccc(-n2sc3ccccc3c2=O)cc1`, the IC50 [7] is reported as 11.9 µM (active).
For `COCC(=O)N1CCC(n2nnc3cc(F)ccc32)CC1`, the IC50 [8] was > 100 µM (not active).
With `Nc1ccc(N2CCCCC2)cc1N1CCCCC1` the IC50 [9] was > 100 µM (not active), the IC50 [10] was > 100 µM (not active) and the AC50 [11] was 12.9 µM (active). The EC50 [12] was > 120 µM (not active), the EC50 [2] was > 60 µM (not active) and the EC50 [13] was > 120 µM (not active). For the same compound, the IC50 [14] was 16.1 µM (active), the EC50 [15] was > 120 µM (not active) and the EC50 [3] was 0.197 µM (active).
For `Cn1ncc(Cl)c1C(=O)N1CCc2ccccc21`, the EC50 [16] was > 167 µM (inactive).
For `Cc1nc2ccccc2c(O)c1C(=O)/C=C/c1ccccc1`, the CC50 [17] was 7.78 µM (active), the AC50 [18] was 6.93 µM (active) and the IC50 [19] was 1.71 µM (active).
With `N#C[C@H]1[C@@H](c2ccc(C#CC3CCCCC3)cc2)[C@@H](CO)N1S(=O)(=O)c1ccccc1` the AC50 [20] was 18.7 µM (active), the AC50 [21] was 32.3 µM (active) and the AC50 [22] was 19 µM (active). For the same compound, the AC50 [23] was 61.4 µM (active), the AC50 [18] was 8.09 µM (active) and the AC50 [24] was 19.3 µM (active). The AC50 [25] was 4.94 µM (active).
For `CCCNC(=O)N1CCC2(CC1)CN(C(C)=O)[C@@H](CO)c1[nH]c3cc(OC)ccc3c12`, the AC50 [26] was 9.51 µM (active).
With `COc1ccc(C#Cc2ccc3c(c2)[C@@H]2[C@@H](CCN2C(=O)C2CCCC2)[C@@H](CO)N3)cc1` the AC50 [27] was > 100 µM (inactive), the AC50 [28] was 1.1 µM (active) and the AC50 [29] was 1.31 µM (active). The AC50 [30] was 1.09 µM (active) and the AC50 [25] was 2.82 µM (active).
For `Cc1cccc(S(=O)(=O)N2CCCCN3[C@@H](CO)[C@@H](c4ccc(C#CC5CC5)cc4)[C@@H]3C2)c1`, the AC50 [25] was 1.3 µM (active) and the AC50 [31] was 14.4 µM (active).
For `CC(C)c1ccccc1OCCn1c(=S)[nH]c2ccccc21`, the AC50 [32] was 32.9 µM (active), the AC50 [33] was 27.6 µM (active) and the AC50 [34] was 21.1 µM (active).
In the case of `O=c1c(-c2ccccc2)c1-c1ccccc1` [DIPHENCYPRONE], the IC50 [35] is reported as > 20 µM (inactive), the IC50 [36] is reported as > 20 µM (inactive) and the IC50 [37] is reported as > 20 µM (inactive). The IC50 [38] was > 10 µM (inactive), the IC50 [39] was > 10 µM (inactive) and the IC50 [40] was > 20 µM (inactive). For the same compound, the IC50 [41] was 3.1 µM (active), the IC50 [42] was 4.21 µM (active) and the IC50 [43] was > 20 µM (inactive).
